In the supplement of paper PMC11451515:

System: NOMO1
Test: cell viability relative to DMSO control; higher = less cytotoxic
Details: 48 h
Method in brief: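 Three leukemia lines were tested: NOMO1 and SEM at 500 cells/well and P12-Ichikawa at 1000 cells/well. Each was adapted for at least four passages in each medium and seeded in 5 μl in 1536-well plates, and library compounds in DMSO were pin-dosed from 47 μM to 0.79 nM in 11 threefold steps. After 48 h at 37°C, CellTiter-Glo One luminescence was read. Viability is a percentage relative to DMSO wells on each plate, with cell-free wells as background.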

[1] = HPLM + 10% dialyzed FBS, 0.000781 µM
[2] = HPLM + 10% dialyzed FBS, 0.00234 µM
[3] = HPLM + 10% dialyzed FBS, 0.00702 µM
[4] = HPLM + 10% dialyzed FBS, 0.0211 µM
[5] = HPLM + 10% dialyzed FBS, 0.0632 µM
[6] = HPLM + 10% dialyzed FBS, 0.19 µM
[7] = HPLM + 10% dialyzed FBS, 0.569 µM
[8] = HPLM + 10% dialyzed FBS, 1.71 µM
[9] = HPLM + 10% dialyzed FBS, 5.12 µM
[10] = HPLM + 10% dialyzed FBS, 15.4 µM
[11] = HPLM + 10% dialyzed FBS, 46.1 µM
[12] = RPMI 5 mM glucose + 10% FBS, 0.000781 µM
[13] = RPMI 5 mM glucose + 10% FBS, 0.00234 µM
[14] = RPMI 5 mM glucose + 10% FBS, 0.00702 µM
[15] = RPMI 5 mM glucose + 10% FBS, 0.0211 µM
[16] = RPMI 5 mM glucose + 10% FBS, 0.0632 µM
[17] = RPMI 5 mM glucose + 10% FBS, 0.19 µM
[18] = RPMI 5 mM glucose + 10% FBS, 0.569 µM
[19] = RPMI 5 mM glucose + 10% FBS, 1.71 µM
[20] = RPMI 5 mM glucose + 10% FBS, 5.12 µM
[21] = RPMI 5 mM glucose + 10% FBS, 15.4 µM
[22] = RPMI 5 mM glucose + 10% FBS, 46.1 µM
[23] = RPMI 5 mM glucose + 10% dialyzed FBS, 0.000781 µM
[24] = RPMI 5 mM glucose + 10% dialyzed FBS, 0.00234 µM
[25] = RPMI 5 mM glucose + 10% dialyzed FBS, 0.00702 µM
[26] = RPMI 5 mM glucose + 10% dialyzed FBS, 0.0211 µM
[27] = RPMI 5 mM glucose + 10% dialyzed FBS, 0.0632 µM
[28] = RPMI 5 mM glucose + 10% dialyzed FBS, 0.19 µM
[29] = RPMI 5 mM glucose + 10% dialyzed FBS, 0.569 µM
[30] = RPMI 5 mM glucose + 10% dialyzed FBS, 1.71 µM
[31] = RPMI 5 mM glucose + 10% dialyzed FBS, 5.12 µM
[32] = RPMI 5 mM glucose + 10% dialyzed FBS, 15.4 µM
[33] = RPMI 5 mM glucose + 10% dialyzed FBS, 46.1 µM

| SMILES | cell viability [1] [%] | cell viability [2] [%] | cell viability [3] [%] | cell viability [4] [%] | cell viability [5] [%] | cell viability [6] [%] | cell viability [7] [%] | cell viability [8] [%] | cell viability [9] [%] | cell viability [10] [%] | cell viability [11] [%] | cell viability [12] [%] | cell viability [13] [%] | cell viability [14] [%] | cell viability [15] [%] | cell viability [16] [%] | cell viability [17] [%] | cell viability [18] [%] | cell viability [19] [%] | cell viability [20] [%] | cell viability [21] [%] | cell viability [22] [%] | cell viability [23] [%] | cell viability [24] [%] | cell viability [25] [%] | cell viability [26] [%] | cell viability [27] [%] | cell viability [28] [%] | cell viability [29] [%] | cell viability [30] [%] | cell viability [31] [%] | cell viability [32] [%] | cell viability [33] [%] |
| --- | --- | --- | --- | --- | --- | --- | --- | --- | --- | --- | --- | --- | --- | --- | --- | --- | --- | --- | --- | --- | --- | --- | --- | --- | --- | --- | --- | --- | --- | --- | --- | --- | --- |
| CCNC(=O)Nc1ccc(Oc2ncnc(N)c2/C=N/OC)cc1Cl | 104 | 113 | 111 | 115 | 109 | 113 | 133 | 125 | 127 | 105 | 111 | 112 | 118 | 114 | 115 | 119 | 113 | 113 | 121 | 118 | 124 | 122 | 90.2 | 113 | 98.1 | 101 | 114 | 109 | 117 | 112 | 103 | 109 | 125 |
| CCNC(=O)CCC/C=C\C[C@@H]1[C@@H](/C=C/C(O)CCc2ccccc2)[C@@H](O)C[C@@H]1O (stereo partly drawn) | 104 | 108 | 106 | 131 | 112 | 130 | 103 | 116 | 105 | 110 | 39.5 | 116 | 118 | 124 | 106 | 108 | 105 | 113 | 120 | 118 | 102 | 38 | 113 | 121 | 106 | 116 | 114 | 105 | 120 | 105 | 118 | 111 | 32.3 |
| COc1cc(NCc2ccc3nc(N)nc(N)c3c2C)cc(OC)c1OC | 90.2 | 91.7 | 98.9 | 95.1 | 93.5 | 98.4 | 89.5 | 44.4 | 36 | 34.2 | 15.9 | 79.3 | 88 | 80.9 | 85.7 | 84.7 | 89.3 | 93.5 | 83.2 | 99.6 | 86.9 | 9.99 | 87.2 | 88.5 | 86.2 | 91.1 | 91 | 107 | 94.5 | 81.1 | 68.8 | 37.9 | 16.6 |
| Oc1ccc(OCc2ccccc2)cc1 | 108 | 131 | 116 | 106 | 132 | 108 | 102 | 107 | 105 | 79.7 | 48.6 | 119 | 113 | 127 | 120 | 114 | 127 | 105 | 104 | 101 | 110 | 87.8 | 110 | 116 | 105 | 112 | 108 | 106 | 114 | 113 | 116 | 89.9 | 60.7 |
| COc1ccccc1[C@H](c1cccc2ccccc12)[C@@](C)(C#N)C(=O)N1CCC(c2cccc(C(F)(F)F)c2)CC1 | 96.4 | 109 | 101 | 104 | 115 | 102 | 102 | 93.7 | 88.6 | 64.3 | 39.9 | 102 | 96 | 101 | 106 | 99.6 | 103 | 99.7 | 107 | 97.6 | 85.2 | 60.3 | 100 | 98.9 | 98.6 | 99.3 | 104 | 99.9 | 86.4 | 86.5 | 83.1 | 67.3 | 53.1 |
| CO[C@H]1/C=C/O[C@@]2(C)Oc3c(C)c(O)c4c(c3C2=O)C2=NC3(CCN(CC(C)C)CC3)NC2=C(NC(=O)/C(C)=C/C=C/[C@H](C)[C@H](O)[C@@H](C)[C@@H](O)[C@@H](C)[C@H](OC(C)=O)[C@@H]1C)C4=O | 117 | 111 | 146 | 135 | 132 | 127 | 138 | 137 | 127 | 113 | 117 | – | – | – | – | – | – | – | – | – | – | – | – | – | – | – | – | – | – | – | – | – | – |
| C=CC(=O)Nc1cc2c(Nc3ccc(F)c(Cl)c3)ncnc2cc1C#CC(C)(C)N1CCN(C)CC1 | 112 | 109 | 112 | 89.9 | 92 | 108 | 117 | 89.2 | 55.3 | 6.12 | 6.26 | 95.3 | 93 | 91.7 | 95.4 | 101 | 93.5 | 101 | 95 | 94.6 | 7.56 | 12.7 | 99.2 | 101 | 107 | 95.3 | 86.6 | 103 | 101 | 106 | 52.7 | 8.43 | 5.07 |
| CN1C(=O)c2sccc2N(C)c2nc(Nc3ccc([S+](N)(=O)[O-])cc3)ncc21 | 113 | 100 | 115 | 104 | 97 | 117 | 105 | 73.4 | 60.5 | 28.5 | 8.75 | 97.2 | 93.2 | 98.4 | 104 | 106 | 90.4 | 90 | 92.9 | 55.3 | 36.4 | 7.28 | 97.8 | 94.7 | 109 | 99.3 | 99 | 95.1 | 98.2 | 70.8 | 53.5 | 33.2 | 4.45 |
| COc1ccc(CCC(=O)c2c(O)cc(O[C@@H]3O[C@H](CO)[C@@H](O)[C@H](O)[C@H]3O[C@@H]3O[C@@H](C)[C@H](O)[C@@H](O)[C@H]3O)cc2O)cc1O | 105 | 138 | 124 | 122 | 120 | 124 | 117 | 102 | 91.2 | 36.1 | 42.7 | 118 | 140 | 114 | 123 | 119 | 119 | 111 | 107 | 114 | 45.2 | 20.7 | 118 | 121 | 119 | 119 | 135 | 116 | 117 | 113 | 110 | 40.2 | 34.4 |
| CC(C)C1CCC(C(=O)N[C@H](Cc2ccccc2)C(=O)O)CC1 (stereo partly drawn) | 87.3 | 100 | 75.4 | 90.4 | 89.9 | 84.5 | 81.4 | 88.6 | 78 | 76.4 | 91.4 | 93.5 | 88.5 | 91.8 | 89.7 | 92.2 | 91.6 | 85.1 | 80.7 | 84.2 | 81.4 | 84.6 | 92.2 | 96.9 | 98.9 | 94.4 | 92 | 94.8 | 100 | 82.6 | 101 | 82.8 | 92.3 |
| CC(C)(N)C(=O)N[C@H](COCc1ccccc1)C(=O)N1CCC2(CC1)CN([S+](C)(=O)[O-])c1ccccc12 | – | – | – | – | – | – | – | – | – | – | – | 117 | 122 | 132 | 124 | 123 | 123 | 122 | 115 | 113 | 109 | 110 | – | – | – | – | – | – | – | – | – | – | – |
| NCCCC(N)(C(=O)O)C(F)F (stereo not drawn) | – | – | – | – | – | – | – | – | – | – | – | 123 | 137 | 122 | 125 | 132 | 111 | 125 | 120 | 109 | 107 | 95.1 | 121 | 112 | 115 | 113 | 126 | 112 | 108 | 125 | 100 | 111 | 90.1 |
| O=C(O)CCCCCC(=O)NN=C1CCCC1 | 99.6 | 96 | 116 | 122 | 107 | 120 | 126 | 132 | 122 | 130 | 133 | 105 | 111 | 111 | 112 | 102 | 100 | 112 | 103 | 116 | 123 | 129 | 91.2 | 92.8 | 97.9 | 110 | 105 | 115 | 96.6 | 109 | 118 | 121 | 103 |
| N[S+](=O)([O-])c1ccc(Nc2nc(OCC3CCCCC3)c3[nH]cnc3n2)cc1 | 111 | 131 | 117 | 116 | 119 | 73.7 | 38.2 | 41.3 | 58.2 | 56.1 | 42.9 | 97.1 | 106 | 109 | 107 | 103 | 103 | 66.9 | 28.4 | 24.3 | 31.4 | 47.1 | 119 | 115 | 118 | 117 | 104 | 116 | 78.2 | 35.9 | 35 | 32 | 67.1 |
| NC(=O)c1cccc(-c2cc(Nc3ccc(OC(F)(F)F)cc3)ncn2)c1 | 88.6 | 99.5 | 96 | 93.9 | 108 | 101 | 97.2 | 94.1 | 103 | 84.5 | 81.4 | 85.8 | 91 | 93.4 | 95.7 | 90 | 103 | 103 | 85.8 | 90.3 | 84.1 | 80.5 | 91.7 | 94.7 | 84.3 | 86.1 | 93.3 | 92.8 | 88.2 | 89.1 | 94.2 | 79.6 | 91.7 |
| COc1c(Cl)cc2c([nH]c3cnccc32)c1NC(=O)c1cccnc1C | 115 | 100 | 110 | 105 | 123 | 124 | 122 | 115 | 108 | 102 | 89.4 | 99.8 | 102 | 98.4 | 101 | 101 | 108 | 111 | 108 | 98.2 | 102 | 99 | 84 | 105 | 103 | 96.1 | 98.9 | 105 | 115 | 116 | 98.2 | 104 | 101 |
